The record followed here is US8324179B2, “Nucleoside analogs for antiviral treatment” (Gilead Sciences, Inc., priority 2007, dated 2012).

In one assay the target is T1, HCV Δ21 NS5b polymerase (Hepatitis C virus genotype 1b, UniProt P26663).
T1 construct: 75 nM HCV Δ21 NS5b polymerase
T1 sequence (P26663 2420-2989, stated change not applied): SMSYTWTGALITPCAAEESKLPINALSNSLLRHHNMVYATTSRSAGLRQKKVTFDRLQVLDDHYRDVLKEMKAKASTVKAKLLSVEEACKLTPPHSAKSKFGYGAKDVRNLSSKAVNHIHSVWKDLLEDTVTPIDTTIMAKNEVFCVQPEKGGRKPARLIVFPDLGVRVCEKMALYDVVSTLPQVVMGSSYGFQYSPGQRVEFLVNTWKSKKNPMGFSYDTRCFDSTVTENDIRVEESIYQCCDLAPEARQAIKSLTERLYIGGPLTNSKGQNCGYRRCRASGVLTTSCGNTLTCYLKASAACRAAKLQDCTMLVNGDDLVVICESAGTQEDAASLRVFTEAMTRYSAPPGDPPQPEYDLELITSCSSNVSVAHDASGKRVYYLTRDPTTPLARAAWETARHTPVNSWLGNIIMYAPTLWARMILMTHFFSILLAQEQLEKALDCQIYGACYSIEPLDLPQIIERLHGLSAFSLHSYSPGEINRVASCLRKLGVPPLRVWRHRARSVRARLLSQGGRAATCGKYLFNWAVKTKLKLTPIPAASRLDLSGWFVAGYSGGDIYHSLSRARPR
In words: NS5b polymerase assay (HCV IC50 determination).
Settings: not given
The assay is classed as biochemical. The protocol:
Assay Protocol: NS5b polymerase assay (40 μL) was assembled by adding 28 μL polymerase mixture (final concentration: 50 mM Tris-HCl at pH 7.5, 10 mM KCL, 5 mM MgCl2, 1 mM DTT, 10 mM EDTA, 4 ng/μL of RNA template, and 75 nM HCV Δ21 NS5b polymerase) to assay plates followed by 4 μL of compound dilution. The polymerase and compound were pre-incubated at 35° C. for 10 minute before the addition of 8 μL of nucleotide substrate mixture (33P-α-labeled competing nucleotide at KM and 0.5 mM of the remaining three nucleotides). The assay plates were covered and incubated at 35° C. for 90 min. Reactions were then filtered through 96-well DEAE-81 filter plates via vacuum. The filter plates were then washed under vacuum with multiple volumes of 0.125 M NaHPO4, water, and ethanol to remove unincorporated label. Plates were then counted on TopCount to assess the level of product synthesis over background controls. The IC50 value was determined using Prism fitting program.
Regarding `Nc1ncnc2c1nnn2[C@@H]1O[C@H](/C=C/P(=O)(O)OP(=O)(O)OP(=O)(O)O)[C@@H](O)[C@H]1O` [Compound 6.8], the IC50 is above 100 µM. The same measure, in the same setting: in the case of `Nc1nc2c(ncn2[C@@H]2O[C@H](/C=C/P(=O)(O)OP(=O)(O)OP(=O)(O)O)C[C@H]2O)c(=O)[nH]1` [Compound 9.12] it was above 100 µM. In turn, `Nc1nc2c(nnn2[C@@H]2O[C@H](/C=C/P(=O)(O)OP(=O)(O)OP(=O)(O)O)C[C@H]2O)c(=O)[nH]1` [Compound 10.4] registered an IC50 above 100 µM.

Consider `COC1C(O)C(C=CP(=O)(O)OP(=O)(O)OP(=O)(O)O)OC1n1cnc2c(=O)[nH]c(N)nc21` (stereo not shown) [Compound 16.95], for which the IC50 is 10 to 100 µM. On to `Nc1ncnc2c1nnn2C1OC(C=CP(=O)(O)OP(=O)(O)OP(=O)(O)O)CC1O` (stereo not shown) [Compound 38.4], for which the IC50 is 10 to 100 µM.

Take `O=C1C=Cc2nn([C@@H]3O[C@H](/C=C/P(=O)(O)OP(=O)(O)OP(=O)(O)O)C[C@H]3O)c3ncnc(c23)N1` [Compound 52.6]: the IC50 is below 10 µM.

Take `Nc1nc(N)c2nnn(C3OC(C=CP(=O)(O)OP(=O)(O)OP(=O)(O)O)CC3O)c2n1` (stereo not shown) [Compound 53.4]: the IC50 was above 100 µM. Consider `NC(=O)c1ncn([C@@H]2O[C@H](/C=C/P(=O)(O)OP(=O)(O)OP(=O)(O)O)C[C@H]2O)n1` [Compound 54.4], for which the IC50 is above 100 µM.

In the case of `Nc1ncnc2c1ncn2[C@@H]1O[C@H](/C=C/P(=O)(O)OP(=O)(O)OP(=O)(O)O)[C@@H](O)[C@H]1F` [Compound 55.7], the IC50 was below 10 µM. `Nc1ncnc2c1ncn2[C@@H]1O[C@H](/C=C/P(=O)(O)OP(=O)(O)OP(=O)(O)O)[C@@H](O)[C@@H]1F` [Compound 56.5] yielded an IC50 above 100 µM. In turn, `O=c1ccn([C@@H]2O[C@H](/C=C/P(=O)(O)OP(=O)(O)OP(=O)(O)O)[C@@H](O)[C@H]2F)c(=O)[nH]1` [Compound 58.7] returned an IC50 of 10 to 100 µM.

In the case of `CN(NS(C)(=O)=O)c1ncnc2c1ncn2[C@@H]1O[C@H](/C=C/P(=O)(O)OP(=O)(O)OP(=O)(O)O)C[C@H]1O` [Compound 60.5], the IC50 is above 100 µM.

A further assay deals with Replicon cells. In words: HCV EC50 determination, replicon luciferase assay. Type of assay: cell-based. To be noted: 3 days, luciferase activity, read-out: Replicon inhibiting potency EC50. How it is done: Replicon cells were seeded in 96-well plates at a density of 8×10^3 cells per well in 100 μL of culture medium, excluding Geneticin. Compound was serially diluted in 100% DMSO and then added to the cells at a 1:200 dilution, achieving a final concentration of 0.5% DMSO and a total volume of 200 μL. Plates were incubated at 37° C. for 3 days, after which culture medium was removed and cells were lysed in lysis buffer provided by Promega's luciferase assay system. Following the manufacturer's instruction, 100 μL of luciferase substrate was added to the lysed cells and luciferase activity was measured in a TopCount luminometer.
As for `CCCCOC(=O)[C@H](C)NP(=O)(/C=C/[C@@H]1C[C@@H](O)[C@H](n2cnc3c(=O)[nH]c(N)nc32)O1)N[C@@H](C)C(=O)OCCCC` [Compound 9.11], the EC50 is below 10 µM. With `Nc1ncnc2c1cnn2[C@@H]1O[C@H](/C=C/P(=O)(O)O)[C@@H](O)[C@H]1O` [Compound 25.3, (E)-2-((2R,3S,4R,5R)-5-(4-amino-1H-pyrazolo[3,4-d]pyrimidin-1-yl)-3.4-dihydroxy-tetrahydrofuran-2-yl)vinylphosphonic acid], the EC50 was above 100 µM.

In the case of `CCCCOC(=O)[C@H](C)NP(=O)(/C=C/[C@H]1O[C@@H](n2cnc3c(N)ncnc32)[C@@H](F)[C@@H]1O)N[C@@H](C)C(=O)OCCCC` [Compound 56.6], the EC50 is below 10 µM.

For the compound “{2-[5-(4-Amino-2-oxo-2H-pyridin-1-yl)-4-hydroxy-tetrahydro-furan-2-yl]-vinyl}-phosphonic acid [Compound 11.2]”, the EC50 was above 100 µM.

The same assay, now with this note: Hepatitis C virus, 72 h, 3 days, luciferase activity, read-out: Replicon inhibiting potency EC50.
With `Nc1ncnc2c1nnn2C1OC(CCP(=O)(O)O)C(O)C1O` (stereo not shown) [Compound 6.7, {2-[5-(7-Amino-[1,2,3]triazolo[4,5-d]pyrimidin-3-yl)-3,4-dihydroxy-tetrahydro-furan-2-yl]-ethyl}-phosphonic acid], the EC50 was above 100 µM. Turning to `CC(=O)Nc1nc2c(ncn2C2OC(C=CP(=O)(O)O)CC2OC(=O)c2ccccc2)c(=O)[nH]1` (stereo not shown) [Compound 9.10, Benzoic acid 2-(2-acetylamino-6-oxo-1,6-dihydro-purin-9-yl)-5-(2-phosphono-vinyl)-tetrahydro-furan-3-yl ester], the EC50 lay in the range of 10 to 100 µM.

Regarding `Nc1nc2c(nnn2C2OC(C=CP(=O)(O)O)CC2O)c(=O)[nH]1` (stereo not shown) [Compound 10.2, {2-[5-(5-Amino-7-oxo-6,7-dihydro-[1,2,3]triazolo[4,5-d]pyrimidin-3-yl)-4-hydroxy-tetrahydro-furan-2-yl]-vinyl}-phosphonic acid], the EC50 lay within 10 to 100 µM. The same measure, in the same setting: the value for `CCCCOC(=O)[C@H](C)NP(=O)(/C=C/[C@@H]1C[C@@H](O)[C@H](n2nnc3c(=O)[nH]c(N)nc32)O1)N[C@@H](C)C(=O)OCCCC` [Compound 10.3] was above 100 µM; that for `Nc1ncnc2c1ncn2C1OC(C=CP(=O)(O)O)CC1O` (stereo not shown) [Compound 12.2, {2-[5-(6-Amino-purin-9-yl)-4-hydroxy-tetrahydro-furan-2-yl]-vinyl}-phosphonic acid] was below 10 µM; that for `Nc1nc(N)c2ncn(C3OC(C=CP(=O)(O)O)CC3O)c2n1` (stereo not shown) [Compound 13.2, {2-[5-(2,6-Diamino-purin-9-yl)-4-hydroxy-tetrahydro-furan-2-yl]-vinyl}-phosphonic acid] was above 100 µM. Same read-out and setting: in the case of `COC1C(O)C(C=CP(=O)(O)O)OC1n1cnc2c(=O)[nH]c(N)nc21` (stereo not shown) [Compound 16.9, {2-[5-(2-Amino-6-oxo-1,6-dihydro-purin-9-yl)-3-hydroxy-4-methoxy-tetrahydro-furan-2-yl]-vinyl}-phosphonic acid] it was above 100 µM.

For the compound `COC1C(O)C(C=CP(=O)(O)O)OC1n1ccc(N)nc1=O` (stereo not shown) [Compound 17.5, {2-[5-(4-Amino-2-oxo-2H-pyrimidin-1-yl)-3-hydroxy-4-methoxy-tetrahydro-furan-2-yl]-vinyl}-phosphonic acid], the EC50 is above 100 µM. In the case of `Nc1nc2c(ncn2C2OC(C=CP(=O)(O)O)C(O)C2O)c(=O)[nH]1` (stereo not shown) [Compound 18.8, {2-[5-(2-Amino-6-oxo-1,6-dihydro-purin-9-yl)-3,4-dihydroxy-tetrahydro-furan-2-yl]-vinyl}-phosphonic acid], the EC50 was in the range of 10 to 100 µM. In the case of `Nc1ncnc2c1ncn2[C@@H]1O[C@H](/C=C/P(=O)(O)O)[C@@H](O)[C@H]1O` [Compound 24.4, (E)-2-((2R,3S,4R,5R)-5-(6-amino-9H-purin-9-yl)-3,4-dihydroxy-tetrahydrofuran-2-yl)vinylphosphonic acid], the EC50 is above 100 µM. For `C[C@@]1(O)[C@H](O)[C@@H](/C=C/P(=O)(O)O)O[C@H]1n1nnc2c(N)ncnc21` [Compound 27.8, (E)-2-((2R,3R,4R,5R)-5-(7-amino-3H-[1,2,3]triazolo[4,5-d]pyrimidin-3-yl)-3,4-dihydroxy-4-methyl-tetrahydrofuran-2-yl)vinylphosphonic acid], the EC50 is above 100 µM.

On to `Nc1ncnc2c1nnn2[C@@H]1O[C@H](/C=C/P(=O)(O)O)C[C@H]1O` [Compound 38.2, (E)-2-((2S,4R,5R)-5-(7-amino-3H-[1,2,3]triazolo[4,5-d]pyrimidin-3-yl)-4-hydroxy-tetrahydrofuran-2-yl)vinylphosphonic acid], for which the EC50 was above 100 µM. Turning to `CNc1nc(N)nc2c1ncn2C1OC(C=CP(=O)(O)O)CC1O` (stereo not shown) [Compound 46.3, {2-[5-(2-Amino-6-methylamino-purin-9-yl)-4-hydroxy-tetrahydro-furan-2-yl]-vinyl}-phosphonic acid], the EC50 is above 100 µM. With `CNc1ncnc2c1ncn2C1OC(C=CP(=O)(O)O)CC1O` (stereo not shown) [Compound 47.2, {2-[4-Hydroxy-5-(6-methylamino-purin-9-yl)-tetrahydro-furan-2-yl]-vinyl}-phosphonic acid], the EC50 was above 100 µM. On the same count and under the same terms, the value for `CCCCOC(=O)[C@H](C)NP(=O)(/C=C/[C@@]1(N=[N+]=[N-])O[C@@H](n2ccc(=O)[nH]c2=O)[C@H](O)[C@@H]1O)N[C@@H](C)C(=O)OCCCC` [Compound 48.7] was 10 to 100 µM; that for `O=c1ccn([C@@H]2O[C@H](/C=C/P(=O)(O)O)C[C@H]2O)c(=O)[nH]1` [Compound 50.6] was above 100 µM; that for `CCCCOC(=O)[C@H](C)NP(=O)(/C=C/[C@@H]1C[C@@H](O)[C@H](n2cnc(C(N)=O)n2)O1)N[C@@H](C)C(=O)OCCCC` [Compound 54.3] was above 100 µM. As for `CCCCOC(=O)[C@H](C)NP(=O)(/C=C/[C@H]1O[C@@H](n2cnc3c(N)ncnc32)[C@H](F)[C@@H]1O)N[C@@H](C)C(=O)OCCCC` [Compound 55.8], the EC50 lay within 10 to 100 µM.

For orientation: IC50 means the concentration that inhibits the measured activity by half. Low readings indicate inhibition by little substance, high ones a need for much substance. A word on the EC50: it is the concentration that produces a half-maximal response.
